Measurements published in ChEMBL document CHEMBL1135981, “Designing analogues of mini atrial natriuretic peptide based on structural analysis by NMR and restrained molecular dynamics” (J Med Chem, 2002).

tested on: CHO; test: Evaluated for Biological activity, 50% effective concentration determined by its ability to produce cGMP; type: functional, cell-based; conditions: Cricetulus griseus

| Compound | EC50 [nM] |
| --- | --- |
| CC[C@H](C)[C@@H]1NC(=O)[C@H](CCCN=C(N)N)NC(=O)[C@H](CC(=O)O)NC(=O)[C@H](CCSC)NC(=O)[C@H](CCCN=C(N)N)NC(=O)CNC(=O)[C@@H](C)NC(=O)[C@H](Cc2ccccc2)NC(=O)[C@H](Cc2c[nH]cn2)NC(=O)[C@@H](NC(=O)[C@@H](N)CCSC)CSSC[C@@H](C(=O)N[C@@H](Cc2ccc(O)cc2)C(=O)N[C@@H](CCCN=C(N)N)C(N)=O)NC(=O)[C@H](CO)NC1=O | 0.176 |
| CC[C@H](C)[C@@H]1NC(=O)[C@H](CCCN=C(N)N)NC(=O)[C@H](CC(=O)O)NC(=O)[C@H](CCSC)NC(=O)[C@H](CCCN=C(N)N)NC(=O)[C@@H](C)NC(=O)CNC(=O)[C@H](Cc2ccccc2)NC(=O)[C@H](Cc2c[nH]cn2)NC(=O)[C@@H](NC(=O)[C@@H](N)CCSC)CSSC[C@@H](C(=O)N[C@@H](Cc2ccc(O)cc2)C(=O)N[C@@H](CCCN=C(N)N)C(N)=O)NC(=O)[C@H](CO)NC1=O | 3.76 |
| CC[C@H](C)[C@@H]1NC(=O)[C@H](CCCN=C(N)N)NC(=O)[C@H](CC(=O)O)NC(=O)[C@H](CCSC)NC(=O)[C@H](CCCN=C(N)N)NC(=O)[C@@H](C)NC(=O)[C@@H](C)NC(=O)[C@H](Cc2ccccc2)NC(=O)[C@H](Cc2c[nH]cn2)NC(=O)[C@@H](NC(=O)[C@@H](N)CCSC)CSSC[C@@H](C(=O)N[C@@H](Cc2ccc(O)cc2)C(=O)N[C@@H](CCCN=C(N)N)C(N)=O)NC(=O)[C@H](CO)NC1=O | 1.31 |
